From patent publication US8216363B2, “Continuous antisolvent crystallization process and system using plug flow reactors” (Illinois Institute of Technology, priority 2008, dated 2012)
Like-named read-outs stand apart in the source and are kept apart here. Each block holds one molecule with its values, some of them ahead of it.

Legend:
[1] = Crystal size distribution of flufenamic acid crystals by particle analyzer probe (FBRM); assay type: physicochemical; conditions: FIG. 10
Method: An undersaturated solution of flufenamic acid (a non-steroidal anti-inflammatory drug) was prepared with 8.7 grams of the active pharmaceutical drug and 700 ml of ethanol (the solvent) in a 1000 ml volumetric flask. The solution was stirred at room temperature (i.e., 25° C.) until complete dissolution.
Flufenamic acid solution and water (the antisolvent) were added to the reactor at constant flow rates using peristaltic pumps. The flow rate of antisolvent added to reactor was chosen in order to maintain a solution/antisolvent ratio of 1:2 vol/vol (ml/ml) in all experiments.
The effects regarding number of addition points of antisolvent on particle size distribution were studied and are summarized in Table 3. In sum, four experiments were conducted. For each experiment, the total antisolvent flow rate was 200 ml/min. In Experiment 1, there was one antisolvent addition point with 200 ml/min of […] added therein. In Experiment 2, there were two antisolvent addition points with 100 ml/min of antisolvent added to the first and second reactor modules, respectively. In Experiment 3, there were three antisolvent addition points with 67 ml/min of antisolvent added to the first, second and third reactor modules, respectively. In Experiment 4, there were four antisolvent addition points with 50 ml/min of antisolvent added to the first, second, third and fourth reactor modules, respectively.
The Raman spectra of the product crystals was collected to ascertain polymorphic form. The CSD of the solid product was also characterized using a particle analyzer probe (e.g., a Lasentec brand probe). The dried crystals were slurried in water and 0.5% of sodium dodecyl sulfate (SDS) surfactant was added to disperse the particles. A magnetic stirrer was used to keep the particles suspended during particle analysis measurements.

[2] = water/methanol 80:20, one stage
Method: The solution was maintained at about 35° C., which is 10° C. above the saturation temperature, for at least 2 hours under gentle agitation for complete dissolution of solids. The solution was cooled down and maintained at room temperature (i.e., 25° C.) overnight (approximately 8 hours).
The concentration of antisolvent introduced to the reactor 403 was suitable to maintain a solution/antisolvent ratio of about 80:20 vol/vol (ml/ml) in all of the experiments.
Three experiments were conducted with one point of antisolvent addition (one stage or one reactor module). The residence time for experiments 1, 2 and 3 were 0.5 to 2 min, respectively.
The process was performed under vacuum. The solid phase was dried overnight (approximately 8 hours) at about 65° C. Raman spectra of the product crystals were collected to ascertain the polymorphic form.

[3] = Crystal size distribution of ketoconazole crystals by laser diffraction (continuous plug flow antisolvent crystallization); assay type: physicochemical
Method: A saturated solution of ketoconazole (an anti-fungal drug) was prepared with about 39 grams of the pharmaceutical compound and about 470 ml of methanol as the solvent in a 1000 ml volumetric flask. The solution was maintained at about 35° C. (10° C. above the saturation temperature) for about 2 hours under gentle agitation to ensure complete dissolution of the solids.
The ketoconazole feed solution (ketoconazole and methanol) and the antisolvent (water) were added to the reactor 403 at a constant flow rate using peristaltic pumps 405. The total amount of antisolvent added to the reactor 403 was enough to maintain a solution/antisolvent ratio of about 70:30 vol/vol (ml/ml) in all of the experiments.
The effect of residence time in the reactor (the term residence time is used to denote the total cumulative residence time in all of the reactor modules combined) and number of stages (that is, the number of reactor modules) on crystal size distribution was studied. […]
The effects of residence time and number of stages on the CSD were analyzed. […] Further, the diluted ketoconazole solid in methanol was measured with a UV spectrophotometer (e.g., a GENESYS 20 UV spectrophotometer) in order to determine the concentration of the ketoconazole. […]
The CSD of ketoconazole was measured at different residence times and number of stages as illustrated in Table 1 using laser diffraction. […]

mean crystal size ([1]; first addition point of antisolvent, ethanol/water 1:2): 65-70 μm | mean crystal size ([1]; printed as third addition point (second mention)): approximately 110 μm | mean crystal size ([1]; second addition point of antisolvent): approximately 80 μm | mean crystal size ([1]; third addition point of antisolvent): approximately 95 μm
SMILES: O=C(O)c1ccccc1Nc1cccc(C(F)(F)F)c1 [flufenamic acid]

polymorphic form of product crystals ([2]; as the residence time increased): β-glycine crystals | polymorphic form of product crystals ([2]; low residence time): α-glycine crystals
SMILES: NCC(=O)O [glycine]

mean crystal size ([3]; FIG. 5, first stage of antisolvent addition, residence time about 40 min, methanol/water 70:30): about 2.5 μm | mean crystal size ([3]; FIG. 7, two points of antisolvent addition): about 3.0 μm
SMILES: CC(=O)N1CCN(c2ccc(OCC3COC(Cn4ccnc4)(c4ccc(Cl)cc4Cl)O3)cc2)CC1 (centres unmarked) [ketoconazole]
